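Tested at 5 concentrations; 48 h exposure; 96-well plates; endpoints linearly interpolated, else capped at highest concentration. Here, GI50 denotes the concentration required for 50% inhibition of growth.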 Calls of active or inactive are those of the source. No stated cut-off is given here; in the data, active = GI50 up to about 1.1 µM and inactive = higher.
Key:
Experiment in all cases: growth of human tumour cells (NCI), 48 h
786-0 = system: 786-0
A498 = system: A498
A549 = system: A549
ACHN = system: ACHN
CAKI-1 = system: CAKI-1
CCRF-CEM = system: CCRF-CEM
COLO 205 = system: COLO 205
DLD-1 = system: DLD-1
DMS-273 = system: DMS-273
EKVX = system: EKVX
HCC 2998 = system: HCC 2998
HCT-116 = system: HCT-116
HCT-15 = system: HCT-15
HL-60 = system: HL-60
HOP-18 = system: HOP-18
HOP-62 = system: HOP-62
HOP-92 = system: HOP-92
HT-29 = system: HT-29
IGROV-1 = system: IGROV-1
K562 = system: K562
KM-20L2 = system: KM-20L2
KM12 = system: KM12
LOX IMVI = system: LOX IMVI
LXFL 529 = system: LXFL 529
M14 = system: M14
M19-MEL = system: M19-MEL
MOLT-4 = system: MOLT-4
Malme-3M = system: Malme-3M
NCI-H226 = system: NCI-H226
NCI-H23 = system: NCI-H23
NCI-H460 = system: NCI-H460
NCI-H522 = system: NCI-H522
OVCAR-3 = system: OVCAR-3
OVCAR-4 = system: OVCAR-4
OVCAR-5 = system: OVCAR-5
OVCAR-8 = system: OVCAR-8
RPMI-8226 = system: RPMI-8226
RXF 393 = system: RXF 393
RXF 631 = system: RXF 631
SF-268 = system: SF-268
SF-295 = system: SF-295
SF-539 = system: SF-539
SK-MEL-28 = system: SK-MEL-28
SK-MEL-2 = system: SK-MEL-2
SK-MEL-5 = system: SK-MEL-5
SK-OV-3 = system: SK-OV-3
SN12C = system: SN12C
SNB-19 = system: SNB-19
SNB-75 = system: SNB-75
SNB-78 = system: SNB-78
SR = system: SR
SW-620 = system: SW-620
TK-10 = system: TK-10
U-251 = system: U-251
UACC-257 = system: UACC-257
UACC-62 = system: UACC-62
UO-31 = system: UO-31
XF498 = system: XF498

CC1=Nc2c(ccc3c2C(=O)c2ccccc2C3=O)NC(c2cccc3c2CCC3)C1 (stereo not drawn)
GI50 (786-0): > 100 µM (inactive)
GI50 (A498): > 67.3 µM (inactive)
GI50 (A549): > 100 µM (inactive)
GI50 (ACHN): 25.3 µM (inactive)
GI50 (CAKI-1): 6.27 µM (inactive)
GI50 (CCRF-CEM): 0.612 µM (active)
GI50 (COLO 205): > 100 µM (inactive)
GI50 (DLD-1): 46.1 µM (inactive)
GI50 (DMS-273): > 73.6 µM (inactive)
GI50 (EKVX): > 100 µM (inactive)
GI50 (HCC 2998): > 100 µM (inactive)
GI50 (HCT-116): 66.2 µM (inactive)
GI50 (HCT-15): 18.7 µM
GI50 (HL-60): 1.58 µM (inactive)
GI50 (HOP-18): > 67.3 µM (inactive)
GI50 (HOP-62): > 73.8 µM (inactive)
GI50 (HOP-92): > 65 µM (inactive)
GI50 (HT-29): > 100 µM (inactive)
GI50 (IGROV-1): 10.3 µM (inactive)
GI50 (K562): 21.4 µM (inactive)
GI50 (KM-20L2): > 100 µM (inactive)
GI50 (KM12): > 31.9 µM (inactive)
GI50 (LOX IMVI): 24.2 µM (inactive)
GI50 (LXFL 529): > 100 µM (inactive)
GI50 (M14): > 92 µM (inactive)
GI50 (M19-MEL): > 43.4 µM (inactive)
GI50 (MOLT-4): 5.11 µM (inactive)
GI50 (Malme-3M): > 100 µM (inactive)
GI50 (NCI-H226): > 66.2 µM (inactive)
GI50 (NCI-H23): > 100 µM (inactive)
GI50 (NCI-H460): 47.8 µM (inactive)
GI50 (NCI-H522): > 23.1 µM (inactive)
GI50 (OVCAR-3): > 90.4 µM (inactive)
GI50 (OVCAR-4): > 100 µM (inactive)
GI50 (OVCAR-5): > 100 µM (inactive)
GI50 (OVCAR-8): > 100 µM (inactive)
GI50 (RPMI-8226): > 100 µM (inactive)
GI50 (RXF 393): > 100 µM (inactive)
GI50 (RXF 631): 70.1 µM (inactive)
GI50 (SF-268): > 100 µM (inactive)
GI50 (SF-295): > 100 µM (inactive)
GI50 (SF-539): > 100 µM (inactive)
GI50 (SK-MEL-28): > 100 µM (inactive)
GI50 (SK-MEL-2): > 80.9 µM (inactive)
GI50 (SK-MEL-5): > 100 µM (inactive)
GI50 (SK-OV-3): > 31 µM (inactive)
GI50 (SN12C): > 100 µM (inactive)
GI50 (SNB-19): > 100 µM (inactive)
GI50 (SNB-75): > 100 µM (inactive)
GI50 (SNB-78): > 100 µM (inactive)
GI50 (SR): 11 µM (inactive)
GI50 (SW-620): > 100 µM (inactive)
GI50 (TK-10): > 100 µM (inactive)
GI50 (U-251): > 100 µM (inactive)
GI50 (UACC-257): > 100 µM (inactive)
GI50 (UACC-62): > 100 µM (inactive)
GI50 (UO-31): 4.72 µM (inactive)
GI50 (XF498): > 100 µM (inactive)

— ChEMBL document CHEMBL1201862, “PubChem BioAssay data set” (2004)
